In patent US12187681B2 (Shanghai East Hospital, priority 2019, dated 2025):

Columns and labels:
[1] = target: T1, hERG (human ether-a-go-go related gene potassium channel, KCNH2) (Homo sapiens, UniProt Q12809); assay: hERG channel whole-cell patch clamp (Ion Channel Activity Measurement); assay type: cell-based; settings: human, room temperature; for inhibition at 1 μM: pH 7.4, 1 μM test article; for inhibition at 10 μM: pH 7.4, 10 μM test article
T1 construct: expressed in transfected cells; host or cells: HEK293
Protocol: HEK293 cell line expressing the human ERG (ether-a-go-go related gene) potassium channel (Potassium voltage-gated channel subfamily H member 2). cDNA strictly similar to GenBank accession number: NM_000238
(§1) Cells expressing channels were cultured in medium supplemented with 20% FBS in HAM'S F12 culture dish. Cells grew in a humidified incubator at 37° C. under 5% carbon dioxide. To passage cells, remove poor medium and rinse the cells once with PBS 1X. […] Place plate on a 37° C. warming incubator 5 min. As soon as cells are detached, add 5 ml of 37° C. complete medium. Draw cell suspension into a sterile pipet and homogenize cells gently to dissociate cells aggregates. Amplify or maintain the cells by seeding 2.5*105 cells in a 6 cm dish (final volume: 5 ml). To maintain electrophysiological performances, cell density must not exceed 80%. On the day before patch clamp experiment, 3*103 cells were seeded on coverslips in the 24-well plate and incubated at 37° C. in 5% carbon dioxide.
(§2) Glass pipette (BF150-86-10, Sutter Instruments) was made by puller (P97, Sutter Instruments). The glass pipette was manipulated using Micro-manipulator (Carm-C-S, MCI Instruments) under the microscope (AE31EF-INV, Motic). After touching the cell, a slight suction was applied to achieve high seal (GΩ). Fast capacitance (in pF) compensation was made after high seal was achieved; after achieving high seal, the membrane was broken, Cell capacitance (in pF) compensation was made from whole-cell capacitance compensation after the whole cell mode was achieved. No leak subtraction was made.
(§3) Cell was incubated with the test article for 5 minutes, or until the current reached a steady-state level. Multiple concentrations of test article were tested. The test articles were applied gradually from low to high concentration. The test and control solutions were flown into a recording chamber mounted on the stage of an inverted microscope via a gravity-fed solution delivery system. During the experiment, solutions were withdrawn from the recording chamber by vacuum aspiration. Each concentration was tested at multiple times. Each cell acted as its own control. All tests were performed at room temperature (23-25° C.).
hERG current was recorded under a holding potential at −80 mV and then depolarized to 30 mV for 2.5 seconds to activate the hERG channel. The peak tail currents were induced by a repolarizing pulse to −50 mV for 4 seconds. This voltage-clamp pulse protocol was performed continuously during the experiment. An interpulse interval of 10 seconds allowed recovery from inactivation. An interpulse of −50 mV test for 0.5 second before 30 mV depolarized step was included for leak current correction

[2] = target: T2, CaV1.2 (L-type voltage-dependent calcium channel; CACNA1C, CACNB2, CACNA2D1) (Homo sapiens, UniProt Q13936); assay: CaV1.2 channel whole-cell patch clamp (Ion Channel Activity Measurement); assay type: cell-based; settings: human, room temperature; for inhibition at 5 min, 1 μM: pH 7.4, 1 μM test article; for inhibition at 5 min, 10 μM: pH 7.4, 10 μM test article, read-out: CaV 1.2 10 μM (ion-channel inhibition)
T2 construct: expressed in transfected cells; host or cells: CHO
Protocol: • CHO cell line stably expressing human calcium channel, voltage-dependent, L type, • CACNA1C: cDNA strictly similar to GenBank accession number: NM_000719 • CACNB2: cDNA strictly similar to GenBank accession number: NM_000724 • CACNA2D1: cDNA strictly similar to GenBank accession number: NM_000722 Iks Channel Cell Line:
as §1
Bath solution: 140 mM TEA-C1, 2 mM MgCl2·6H2O, 10 mM CaCl2, 10 mM HEPES, 5 mM D-glucose, pH=7.4 with TEA-OH. Pipette solution: 120 mM CsCl, 1 mM MgCl2·6H2O, 10 mM HEPES, 10 mM EGTA, 0.3 mM Na2-GTP, 4 mM Mg-ATP, pH=7.2 with CsOH.
as §2, §3
Cav1.2 current was recorded under a holding potential at −80 mV and then depolarized to +10 mV for 0.3 seconds. This protocol was repeated at 20 s intervals to observe the effect of test articles on the peak of Cav1.2 current.

[3] = HEK293 cells expressing the human ERG potassium channel

T2 sequence (Q13936 1-2138 isoform Q13936-12): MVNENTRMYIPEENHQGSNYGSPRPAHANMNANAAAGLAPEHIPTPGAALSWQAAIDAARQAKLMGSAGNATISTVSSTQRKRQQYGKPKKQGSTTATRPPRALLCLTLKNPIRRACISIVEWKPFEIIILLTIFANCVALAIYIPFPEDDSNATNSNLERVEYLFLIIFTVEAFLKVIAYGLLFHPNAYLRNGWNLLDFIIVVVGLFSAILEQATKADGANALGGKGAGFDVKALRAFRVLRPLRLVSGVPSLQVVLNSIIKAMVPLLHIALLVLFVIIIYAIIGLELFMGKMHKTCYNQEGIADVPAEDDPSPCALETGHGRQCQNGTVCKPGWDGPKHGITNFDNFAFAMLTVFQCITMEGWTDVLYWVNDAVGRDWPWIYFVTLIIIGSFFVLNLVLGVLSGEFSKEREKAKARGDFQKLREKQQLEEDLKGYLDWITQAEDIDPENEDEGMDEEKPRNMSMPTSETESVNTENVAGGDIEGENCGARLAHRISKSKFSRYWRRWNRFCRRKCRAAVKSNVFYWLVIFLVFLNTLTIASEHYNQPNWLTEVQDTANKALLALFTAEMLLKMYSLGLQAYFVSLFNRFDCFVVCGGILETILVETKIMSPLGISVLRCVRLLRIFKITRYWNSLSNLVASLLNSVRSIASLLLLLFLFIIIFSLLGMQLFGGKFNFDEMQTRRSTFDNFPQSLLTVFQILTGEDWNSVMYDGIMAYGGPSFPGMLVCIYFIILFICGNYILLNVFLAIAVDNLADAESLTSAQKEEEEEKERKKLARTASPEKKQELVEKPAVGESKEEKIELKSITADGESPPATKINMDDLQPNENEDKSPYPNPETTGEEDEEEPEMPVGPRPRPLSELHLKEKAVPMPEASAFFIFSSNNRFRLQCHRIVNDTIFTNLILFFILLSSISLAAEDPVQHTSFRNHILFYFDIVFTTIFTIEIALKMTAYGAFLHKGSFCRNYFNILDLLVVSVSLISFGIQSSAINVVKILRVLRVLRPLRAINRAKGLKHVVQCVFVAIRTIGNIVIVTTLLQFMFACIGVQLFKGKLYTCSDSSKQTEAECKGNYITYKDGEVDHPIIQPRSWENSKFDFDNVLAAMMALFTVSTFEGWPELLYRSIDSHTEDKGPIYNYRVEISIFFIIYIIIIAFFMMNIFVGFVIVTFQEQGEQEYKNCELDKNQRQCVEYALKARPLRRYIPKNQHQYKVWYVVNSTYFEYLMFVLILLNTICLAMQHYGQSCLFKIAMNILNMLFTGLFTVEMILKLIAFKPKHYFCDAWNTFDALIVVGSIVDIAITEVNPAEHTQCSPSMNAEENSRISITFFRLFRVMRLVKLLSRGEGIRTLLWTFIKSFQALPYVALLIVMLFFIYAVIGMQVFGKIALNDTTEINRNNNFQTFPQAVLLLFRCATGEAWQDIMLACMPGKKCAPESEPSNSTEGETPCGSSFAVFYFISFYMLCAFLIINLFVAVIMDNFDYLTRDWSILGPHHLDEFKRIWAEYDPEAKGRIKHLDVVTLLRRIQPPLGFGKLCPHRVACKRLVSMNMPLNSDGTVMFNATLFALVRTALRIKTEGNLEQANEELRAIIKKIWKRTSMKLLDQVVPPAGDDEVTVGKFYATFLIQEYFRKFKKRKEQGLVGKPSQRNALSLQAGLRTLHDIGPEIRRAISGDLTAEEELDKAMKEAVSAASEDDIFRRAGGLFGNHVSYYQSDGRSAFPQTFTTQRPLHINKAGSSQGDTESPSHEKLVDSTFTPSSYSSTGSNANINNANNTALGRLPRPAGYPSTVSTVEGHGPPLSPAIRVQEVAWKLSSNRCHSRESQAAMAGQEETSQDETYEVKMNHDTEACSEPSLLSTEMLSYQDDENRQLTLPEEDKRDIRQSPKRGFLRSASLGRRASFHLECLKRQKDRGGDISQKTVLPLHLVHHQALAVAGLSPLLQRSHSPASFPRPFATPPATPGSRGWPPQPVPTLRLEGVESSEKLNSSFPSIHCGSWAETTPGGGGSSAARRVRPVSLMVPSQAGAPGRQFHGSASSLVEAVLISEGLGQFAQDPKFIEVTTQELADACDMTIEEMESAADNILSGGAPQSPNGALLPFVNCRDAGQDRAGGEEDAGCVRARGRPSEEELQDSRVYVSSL
T2 sequence (Q08289 1-605 isoform Q08289-2 partner): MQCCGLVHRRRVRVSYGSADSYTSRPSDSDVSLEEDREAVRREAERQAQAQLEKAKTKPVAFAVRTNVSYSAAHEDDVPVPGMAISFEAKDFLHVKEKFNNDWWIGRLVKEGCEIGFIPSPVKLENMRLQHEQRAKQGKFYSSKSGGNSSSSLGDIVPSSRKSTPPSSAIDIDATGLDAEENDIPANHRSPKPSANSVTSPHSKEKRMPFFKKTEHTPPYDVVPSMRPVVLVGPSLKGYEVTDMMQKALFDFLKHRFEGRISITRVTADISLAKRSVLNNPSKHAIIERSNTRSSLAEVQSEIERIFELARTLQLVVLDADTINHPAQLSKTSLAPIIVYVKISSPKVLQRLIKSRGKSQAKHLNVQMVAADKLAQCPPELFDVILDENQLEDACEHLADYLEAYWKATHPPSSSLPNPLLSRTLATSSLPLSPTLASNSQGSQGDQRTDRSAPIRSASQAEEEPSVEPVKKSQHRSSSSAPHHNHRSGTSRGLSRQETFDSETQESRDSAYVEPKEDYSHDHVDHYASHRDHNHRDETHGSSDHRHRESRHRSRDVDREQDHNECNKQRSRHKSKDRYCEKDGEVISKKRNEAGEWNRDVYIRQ
T2 sequence (P54289 25-1091 isoform P54289-2 partner limits assumed): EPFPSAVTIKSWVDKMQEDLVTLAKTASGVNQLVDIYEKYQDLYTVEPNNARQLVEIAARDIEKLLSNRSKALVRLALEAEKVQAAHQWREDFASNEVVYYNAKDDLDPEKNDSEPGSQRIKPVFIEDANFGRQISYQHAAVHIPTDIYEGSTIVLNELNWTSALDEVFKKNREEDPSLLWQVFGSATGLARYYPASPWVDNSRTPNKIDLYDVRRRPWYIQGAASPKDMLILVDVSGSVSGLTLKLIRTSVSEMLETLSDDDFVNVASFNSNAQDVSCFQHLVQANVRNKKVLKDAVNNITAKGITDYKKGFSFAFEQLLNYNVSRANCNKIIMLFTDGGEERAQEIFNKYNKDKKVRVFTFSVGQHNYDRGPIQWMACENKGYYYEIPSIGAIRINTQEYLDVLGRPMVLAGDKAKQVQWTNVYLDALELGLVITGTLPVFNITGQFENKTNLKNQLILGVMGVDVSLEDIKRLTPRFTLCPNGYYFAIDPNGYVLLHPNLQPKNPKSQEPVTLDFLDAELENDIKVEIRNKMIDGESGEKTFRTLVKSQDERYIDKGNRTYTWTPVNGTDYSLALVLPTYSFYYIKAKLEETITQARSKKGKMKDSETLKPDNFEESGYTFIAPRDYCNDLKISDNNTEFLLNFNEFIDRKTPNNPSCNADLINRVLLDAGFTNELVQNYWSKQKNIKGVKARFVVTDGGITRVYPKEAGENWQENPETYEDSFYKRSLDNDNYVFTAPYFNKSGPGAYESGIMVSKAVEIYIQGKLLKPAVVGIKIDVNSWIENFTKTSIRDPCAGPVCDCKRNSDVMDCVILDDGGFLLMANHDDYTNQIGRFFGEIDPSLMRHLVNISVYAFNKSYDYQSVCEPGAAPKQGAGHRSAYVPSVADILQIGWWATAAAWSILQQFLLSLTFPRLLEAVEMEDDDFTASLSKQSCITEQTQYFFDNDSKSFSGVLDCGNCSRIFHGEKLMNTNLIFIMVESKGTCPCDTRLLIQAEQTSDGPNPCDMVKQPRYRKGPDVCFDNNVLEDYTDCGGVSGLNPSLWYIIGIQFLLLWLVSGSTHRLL
T2 sequence (P54289 957-1103 partner limits assumed): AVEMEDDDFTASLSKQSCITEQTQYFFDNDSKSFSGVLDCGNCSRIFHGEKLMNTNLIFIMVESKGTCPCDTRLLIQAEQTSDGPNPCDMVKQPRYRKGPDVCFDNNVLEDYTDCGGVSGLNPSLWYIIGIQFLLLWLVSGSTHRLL
T1 sequence (Q12809 whole entry): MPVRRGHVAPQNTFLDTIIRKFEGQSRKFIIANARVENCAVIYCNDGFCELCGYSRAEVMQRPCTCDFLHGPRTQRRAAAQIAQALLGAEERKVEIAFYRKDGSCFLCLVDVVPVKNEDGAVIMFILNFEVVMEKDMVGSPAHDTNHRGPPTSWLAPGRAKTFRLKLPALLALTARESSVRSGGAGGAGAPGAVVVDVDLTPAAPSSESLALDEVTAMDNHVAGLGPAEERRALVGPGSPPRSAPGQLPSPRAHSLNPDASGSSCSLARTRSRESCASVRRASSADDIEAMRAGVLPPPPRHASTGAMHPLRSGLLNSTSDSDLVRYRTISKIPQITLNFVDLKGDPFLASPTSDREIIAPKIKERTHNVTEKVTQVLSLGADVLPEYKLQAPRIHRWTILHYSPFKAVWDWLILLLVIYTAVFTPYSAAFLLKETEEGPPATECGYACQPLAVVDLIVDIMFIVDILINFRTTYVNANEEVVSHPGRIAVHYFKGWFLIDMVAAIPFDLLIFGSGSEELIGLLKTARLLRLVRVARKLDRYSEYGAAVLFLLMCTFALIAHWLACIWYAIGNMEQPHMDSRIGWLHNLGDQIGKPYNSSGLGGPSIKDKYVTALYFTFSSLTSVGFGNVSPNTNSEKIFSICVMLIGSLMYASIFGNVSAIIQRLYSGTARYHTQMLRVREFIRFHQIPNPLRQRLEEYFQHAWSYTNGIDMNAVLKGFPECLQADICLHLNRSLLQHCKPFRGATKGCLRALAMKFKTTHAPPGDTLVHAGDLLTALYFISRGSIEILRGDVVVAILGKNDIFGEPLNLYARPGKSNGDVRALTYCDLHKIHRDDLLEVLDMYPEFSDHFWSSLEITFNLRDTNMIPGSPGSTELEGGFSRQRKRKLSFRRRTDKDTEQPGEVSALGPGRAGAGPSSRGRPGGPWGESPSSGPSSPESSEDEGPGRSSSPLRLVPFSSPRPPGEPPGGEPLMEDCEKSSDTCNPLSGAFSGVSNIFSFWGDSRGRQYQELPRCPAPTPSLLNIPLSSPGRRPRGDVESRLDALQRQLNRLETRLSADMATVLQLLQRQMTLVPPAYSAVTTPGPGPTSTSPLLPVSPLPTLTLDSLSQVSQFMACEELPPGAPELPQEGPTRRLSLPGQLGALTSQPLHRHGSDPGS

CCN(CC)CCOc1ccc2nccnc2c1Cc1c(O)ccc2ccccc12 [Compound A168, 1-((6-(2-(diethylamino)ethoxy)quinoxalin-5-yl)methyl)naphthalen-2-ol]
inhibition at 1 μM [1, 3]: < 25%
inhibition at 10 μM [1, 3]: < 25%
inhibition at 5 min, 1 μM [2]: < 25%
inhibition at 5 min, 10 μM [2]: < 25%

CC(C)Oc1ccc2ccccc2c1Cc1c(OCCN2CCCC2)ccc2ccccc12 [Compound A256, 1-(2-((1-((2-isopropoxynaphthalen-1-yl)methyl)naphthalen-2-yl)oxy)ethyl)pyrrolidine]
inhibition at 1 μM [1, 3]: 50 to 75%
inhibition at 10 μM [1, 3]: 75 to 100%
inhibition at 5 min, 1 μM [2]: < 25%
inhibition at 5 min, 10 μM [2]: 75 to 100%

COc1ccc2ccccc2c1Cc1c(COCCN2CCCC2)ccc2ccccc12 [Compound A296, 1-(2-((1-((2-methoxynaphthalen-1-yl)methyl)naphthalen-2-yl)methoxy)ethyl)pyrrolidine]
inhibition at 1 μM [1]: 75 to 100%
inhibition at 5 min, 1 μM [2]: < 25%
inhibition at 5 min, 10 μM [2]: 75 to 100%

CC(c1c(O)ccc2ccccc12)c1c(O)ccc2ccccc12 [Compound A012, 1,1′-(ethane-1,1-diyl) bis (naphthalen-2-ol)]
inhibition at 1 μM [1, 3]: < 25%
inhibition at 10 μM [1, 3]: 25 to 50%
inhibition at 5 min, 1 μM [2]: < 25%
inhibition at 5 min, 10 μM [2]: 75 to 100%

O=C(c1c(O)ccc2ccccc12)c1c(OCCN2CCCC2)ccc2ccccc12 [Compound A234, (2-hydroxynaphthalen-1-yl)(2-(2-(pyrrolidin-1-yl)ethoxy)naphthalen-1-yl)methanone]
inhibition at 1 μM [1, 3]: 75 to 100%
inhibition at 10 μM [1, 3]: 75 to 100%
inhibition at 5 min, 1 μM [2]: < 25%
inhibition at 5 min, 10 μM [2]: 75 to 100%

Oc1ccc2ccccc2c1Cc1c(O)ncc2ccccc12 [Compound A027, 4-((2-hydroxynaphthalen-1-yl)methyl)isoquinolin-3-ol]
inhibition at 1 μM [1, 3]: < 25%
inhibition at 10 μM [1, 3]: < 25%
inhibition at 5 min, 1 μM [2]: < 25%
inhibition at 5 min, 10 μM [2]: 25 to 50%

CCN(CC)CCOc1ccc2ccccc2c1Cc1c(O)c(C)cc2ccccc12 [Compound A098, 1-((2-(2-(diethylamino)ethoxy)naphthalen-1-yl)methyl)-3-methylnaphthalen-2-ol]
inhibition at 1 μM [1, 3]: 25 to 50%
inhibition at 10 μM [1, 3]: 75 to 100%
inhibition at 5 min, 1 μM [2]: < 25%
inhibition at 5 min, 10 μM [2]: < 25%

Oc1ccc2ccccc2c1Cn1c(O)nc2ccccc21 [Compound A056, 1-((2-hydroxynaphthalen-1-yl)methyl)-1H-benzo[d]imidazol-2-ol]
inhibition at 1 μM [1, 3]: < 25%
inhibition at 10 μM [1, 3]: < 25%
inhibition at 5 min, 1 μM [2]: < 25%
inhibition at 5 min, 10 μM [2]: 25 to 50%

CC(=O)N(c1c(O)ccc2ccccc12)c1c(O)ccc2ccccc12 [Compound A075, N,N-bis(2-hydroxynaphthalen-1-yl)acetamide]
inhibition at 1 μM [1, 3]: < 25%
inhibition at 10 μM [1, 3]: < 25%
inhibition at 5 min, 1 μM [2]: < 25%
inhibition at 5 min, 10 μM [2]: < 25%

O=C(O)c1ccc2ccccc2c1Cc1c(O)ccc2ccccc12 [Compound A106, 1-((2-hydroxynaphthalen-1-yl)methyl)-2-naphthoic acid]
inhibition at 1 μM [1, 3]: < 25%
inhibition at 10 μM [1, 3]: < 25%
inhibition at 5 min, 1 μM [2]: < 25%
inhibition at 5 min, 10 μM [2]: < 25%

CCOCOc1ccc2ccccc2c1Cc1c(OCCN2CCCC2)ccc2ccccc12 [Compound A254, 1-(2-((1-((2-(ethoxymethoxy)naphthalen-1-yl)methyl)naphthalen-2-yl)oxy)ethyl)pyrrolidine]
inhibition at 1 μM [1, 3]: < 25%
inhibition at 10 μM [1, 3]: 75 to 100%
inhibition at 5 min, 1 μM [2]: < 25%
inhibition at 5 min, 10 μM [2]: 50 to 75%

Oc1ccc2ccccc2c1Cc1c(OCCC2CCNCC2)ccc2ccccc12 [Compound A286, 1-((2-(2-(piperidin-4-yl)ethoxy)naphthalen-1-yl)methyl)naphthalen-2-ol]
inhibition at 1 μM [1, 3]: 75 to 100%
inhibition at 5 min, 1 μM [2]: < 25%
inhibition at 5 min, 10 μM [2]: 75 to 100%

COc1cccc(-c2cccnc2)c1Cc1c(O)cccc1-c1cccnc1 [Compound A117-I-1, 2-(2-methoxy-6-(pyridin-3-yl)benzyl)-3-(pyridin-3-yl)phenol]
inhibition at 1 μM [1, 3]: < 25%
inhibition at 10 μM [1, 3]: 25 to 50%
inhibition at 5 min, 1 μM [2]: < 25%
inhibition at 5 min, 10 μM [2]: < 25%

CS(=O)(=O)Nc1ccc2ccccc2c1Cc1c(O)ccc2ccccc12 [Compound A025, N-(1-((2-hydroxynaphthalen-1-yl)methyl)naphthalen-2-yl)methanesulfonamide]
inhibition at 1 μM [1, 3]: < 25%
inhibition at 10 μM [1, 3]: 25 to 50%
inhibition at 5 min, 1 μM [2]: < 25%
inhibition at 5 min, 10 μM [2]: 25 to 50%

O=C(Nc1c(O)ccc2ccccc12)c1c(O)ccc2ccccc12 [Compound A044, 2-hydroxy-N-(2-hydroxynaphthalen-1-yl)-1-naphthamide]
inhibition at 1 μM [1, 3]: < 25%
inhibition at 10 μM [1, 3]: 25 to 50%
inhibition at 5 min, 1 μM [2]: < 25%
inhibition at 5 min, 10 μM [2]: < 25%

Oc1ccc2ccccc2c1Cc1c(OCCN2CCCCC2)ccc2ccccc12 [Compound A138, 1-((2-(2-(piperidin-1-yl)ethoxy)naphthalen-1-yl)methyl)naphthalen-2-ol]
inhibition at 1 μM [1, 3]: 75 to 100%
inhibition at 5 min, 1 μM [2]: < 25%
inhibition at 5 min, 10 μM [2]: 75 to 100%

Oc1ccc2ccccc2c1Cc1c(OCCN2CCOCC2)ccc2ccccc12 [Compound A130, 1-((2-(2-morpholinoethoxy)naphthalen-1-yl)methyl)naphthalen-2-ol]
inhibition at 1 μM [1, 3]: < 25%
inhibition at 10 μM [1, 3]: 75 to 100%
inhibition at 5 min, 1 μM [2]: 25 to 50%
inhibition at 5 min, 10 μM [2]: 75 to 100%

O=C1Cc2ccccc2N1Cc1c(O)ccc2ccccc12 [Compound A057, 1-((2-hydroxynaphthalen-1-yl)methyl)indolin-2-one]
inhibition at 1 μM [1, 3]: < 25%
inhibition at 10 μM [1, 3]: < 25%
inhibition at 5 min, 1 μM [2]: < 25%
inhibition at 5 min, 10 μM [2]: < 25%

O=C(c1c(O)ccc2ccccc12)c1c(O)ccc2ccccc12 [Compound A007, bis(2-hydroxynaphthalen-1-yl)methanone]
inhibition at 1 μM [1, 3]: < 25%
inhibition at 10 μM [1, 3]: 25 to 50%
inhibition at 5 min, 1 μM [2]: < 25%
inhibition at 5 min, 10 μM [2]: 50 to 75%

Nc1ccc2ccccc2c1Cc1c(O)ccc2ccccc12 [Compound A021, 1-((2-aminonaphthalen-1-yl)methyl)naphthalen-2-ol]
inhibition at 1 μM [1, 3]: < 25%
inhibition at 10 μM [1, 3]: < 25%
inhibition at 5 min, 1 μM [2]: < 25%
inhibition at 5 min, 10 μM [2]: < 25%

CCN(CC)CCOc1ccc2ccccc2c1Cc1c(OCCN(CC)CC)ccc2ccccc12 [Compound A103, 2,2′-((methylenebis(naphthalene-1,2-diyl))bis(oxy))bis(N,N-diethylethan-1-amine) formic acid]
inhibition at 5 min, 1 μM [2]: < 25%
inhibition at 5 min, 10 μM [2]: < 25%

CS(=O)(=O)Nc1cc2ccccc2cc1Cc1c(NS(C)(=O)=O)ccc2ccccc12 [Compound A024-3, N-(3-((2-(methylsulfonamido)naphthalen-1-yl)methyl)naphthalen-2-yl)methanesulfonamide]
inhibition at 5 min, 1 μM [2]: < 25%
inhibition at 5 min, 10 μM [2]: 25 to 50%

CS(=O)(=O)Nc1ccc2ccccc2c1Cc1c(NS(C)(=O)=O)ccc2ccccc12 [Compound A024, N,N′-(methylenebis(naphthalene-1,2-diyl))dimethanesulfonamide]
inhibition at 5 min, 1 μM [2]: < 25%
inhibition at 5 min, 10 μM [2]: < 25%

CC(C)Oc1ccc2ccccc2c1Cc1c(OCCN)ccc2ccccc12 [Compound A246, 2-((1-((2-isopropoxynaphthalen-1-yl)methyl)naphthalen-2-yl)oxy)ethan-1-amine]
inhibition at 1 μM [1, 3]: 25 to 50%
